According to US20040235019A1, “Diagnostics and therapeutics for the gene expression signature of PPAR-gamma receptor ligand” (Agouron Pharmaceuticals, Inc., priority 2003, published 2004):

Legend:
[1] = test system: 3T3-L1 cells; assay: Gene profile of 3T3-L1 cells treated with Rosiglitazone after PPARγ1 antisense knockdown; assay type: cell-based, murine; conditions: antisense 72 hours
Description: 3T3-L1 cells were treated for 72 hours with an antisense construct whose nucleic acid sequence was complementary to PPARγ1 and treated with Rosiglitazone. As a separate control, 3T3-L1 were cells treated with the antisense construct, but without Rosiglitazone. Gene expression levels were determined using Affymetix microarray analysis. Following the incubation, RNA was extracted from the cells using Trizol (Invitrogen) followed by cleanup using an RNeasy kit (Qiagen) including DNase I treatment. Probes from each of these cell populations were prepared by reverse transcription-polymerase chain reaction (RT-PCR) and subsequently biotin labeled by in vitro transcription using the BioArray High Yield RNA Transcript Labeling Kit (Enzo). The probes were then hybridized to U74Aver2 Affymetrix gene chips. The hybridization was conducted as follows The hybridization was for 16 hours at 45° C. and 60 RPM in a rotisserie box.

[2] = patients; personal communication (Heidi Camp, Pfizer Inc); cited from earlier work

Row | SMILES | genes of Tables I and II also up- or down-regulated by Rosiglitazone in cells treated with PPARγ1 antisense nucleic acid [1] [%] | incidence of edema clinically [2]
1 | CN(CCOc1ccc(CC2SC(=O)NC2=O)cc1)c1ccccn1 (centres unmarked) [Rosiglitazone] | 91 | 
2 | Cc1oc(-c2ccccc2)nc1CCOc1ccc(C[C@H](Nc2ccccc2C(=O)c2ccccc2)C(=O)O)cc1 [Farglitazar] |  | most frequent incidence of edema clinically
